# ChEMBL document CHEMBL3217526, “Bioguided discovery and pharmacophore modeling of the mycotoxic indole diterpene alkaloids penitrems as breast cancer proliferation, migration, and invasion inhibitors” (Medchemcomm, 2013)
# The source made the active and inactive calls. The calls are words filed in the database; no cut-off is given here.
# Key:
# Caenorhabditis elegans [1] = test: Toxicity in L1 stage Caenorhabditis elegans N2 assessed as viability and reproduction at 50 uM; format: organism-based; settings: in vivo
# Caenorhabditis elegans [2] = test: Toxicity in L1 stage Caenorhabditis elegans N2 assessed as viability and reproduction at 10 uM; format: organism-based; settings: in vivo
# MDA-MB-231 [3] = test: Antiinvasive activity against human MDA-MB-231 cells assessed as inhibition of cell invasion at 15 uM after 24 hrs by BME Cell invasion assay kit; format: functional
# MDA-MB-231 [4] = test: Antimigratory activity in human MDA-MB-231 cells after 24 hrs by wound healing assay; format: functional, cell-based; settings: MDA-MB-231, 24 h
# MDA-MB-231 [5] = test: Antiproliferative activity against human MDA-MB-231 cells after 72 hrs by MTT assay; format: functional, cell-based; settings: MDA-MB-231, 72 h
# MCF7 = test: Antiproliferative activity against human MCF7 cells after 72 hrs by MTT assay; format: functional, cell-based; settings: MCF7, 72 h
# MDA-MB-468 = test: Cytotoxicity against human MDA-MB-468 cells assessed as growth inhibition at 10 uM; format: functional; settings: read-out: GI
# T47D = test: Cytotoxicity against human T47D cells assessed as growth inhibition at 10 uM; format: functional; settings: read-out: GI
# BT-549 = test: Cytotoxicity against human BT549 cells assessed as growth inhibition at 10 uM; format: functional; settings: read-out: GI
# [6] = Cytotoxicity against human Hs578T cells assessed as growth inhibition at 10 uM; format: functional; settings: Hs-578T, read-out: GI
# MDA-MB-231 [7] = test: Cytotoxicity against human MDA-MB-231 cells assessed as growth inhibition at 10 uM; format: functional; settings: read-out: GI
# DU-145 = test: Cytotoxicity against human DU145 cells assessed as growth inhibition at 10 uM; format: functional; settings: read-out: GI
# PC-3 = test: Cytotoxicity against human PC3 cells assessed as growth inhibition at 10 uM; format: functional; settings: read-out: GI
# [8] = Cytotoxicity against human UO31 cells assessed as growth inhibition at 10 uM; format: functional; settings: UO-31, read-out: GI
# TK-10 = test: Cytotoxicity against human TK10 cells assessed as growth inhibition at 10 uM; format: functional; settings: read-out: GI
# SN12C = test: Cytotoxicity against human SN12C cells assessed as growth inhibition at 10 uM; format: functional; settings: read-out: GI
# RXF 393 = test: Cytotoxicity against human RXF393 cells assessed as growth inhibition at 10 uM; format: functional; settings: read-out: GI
# ACHN = test: Cytotoxicity against human ACHN cells assessed as growth inhibition at 10 uM; format: functional; settings: read-out: GI
# 786-0 = test: Cytotoxicity against human 786-0 cells assessed as growth inhibition at 10 uM; format: functional; settings: read-out: GI
# SK-OV-3 = test: Cytotoxicity against human SKOV3 cells assessed as growth inhibition at 10 uM; format: functional; settings: read-out: GI
# [9] = Cytotoxicity against human NCI-ADR-RES cells assessed as growth inhibition at 10 uM; format: functional; settings: read-out: GI
# [10] = Cytotoxicity against human OVCAR8 cells assessed as growth inhibition at 10 uM; format: functional; settings: OVCAR-8, read-out: GI
# [11] = Cytotoxicity against human OVCAR5 cells assessed as growth inhibition at 10 uM; format: functional; settings: OVCAR-5, read-out: GI
# [12] = Cytotoxicity against human OVCAR4 cells assessed as growth inhibition at 10 uM; format: functional; settings: OVCAR-4, read-out: GI
# [13] = Cytotoxicity against human OVCAR3 cells assessed as growth inhibition at 10 uM; format: functional; settings: OVCAR-3, read-out: GI
# IGROV-1 = test: Cytotoxicity against human IGROV1 cells assessed as growth inhibition at 10 uM; format: functional; settings: read-out: GI
# [14] = Cytotoxicity against human UACC62 cells assessed as growth inhibition at 10 uM; format: functional; settings: UACC-62, read-out: GI
# [15] = Cytotoxicity against human UACC257 cells assessed as growth inhibition at 10 uM; format: functional; settings: UACC-257, read-out: GI
# SK-MEL-5 = test: Cytotoxicity against human SK-MEL-5 cells assessed as growth inhibition at 10 uM; format: functional; settings: read-out: GI
# SK-MEL-2 = test: Cytotoxicity against human SK-MEL-2 cells assessed as growth inhibition at 10 uM; format: functional; settings: read-out: GI
# SK-MEL-28 = test: Cytotoxicity against human SK-MEL-28 cells assessed as growth inhibition at 10 uM; format: functional; settings: read-out: GI
# MDA-MB-435 = test: Cytotoxicity against human MDA-MB-435 cells assessed as growth inhibition at 10 uM; format: functional; settings: read-out: GI
# Malme-3M = test: Cytotoxicity against human MALME-3M cells assessed as growth inhibition at 10 uM; format: functional; settings: read-out: GI
# M14 = test: Cytotoxicity against human M14 cells assessed as growth inhibition at 10 uM; format: functional; settings: read-out: GI
# LOX IMVI = test: Cytotoxicity against human LOXIMVI cells assessed as growth inhibition at 10 uM; format: functional; settings: read-out: GI
# U-251 = test: Cytotoxicity against human U251 cells assessed as growth inhibition at 10 uM; format: functional; settings: read-out: GI
# SNB-75 = test: Cytotoxicity against human SNB75 cells assessed as growth inhibition at 10 uM; format: functional; settings: read-out: GI
# SNB-19 = test: Cytotoxicity against human SNB19 cells assessed as growth inhibition at 10 uM; format: functional; settings: read-out: GI
# SF-539 = test: Cytotoxicity against human SF539 cells assessed as growth inhibition at 10 uM; format: functional; settings: read-out: GI
# SF-268 = test: Cytotoxicity against human SF268 cells assessed as growth inhibition at 10 uM; format: functional; settings: read-out: GI
# SW-620 = test: Cytotoxicity against human SW620 cells assessed as growth inhibition at 10 uM; format: functional; settings: read-out: GI
# KM12 = test: Cytotoxicity against human KM12 cells assessed as growth inhibition at 10 uM; format: functional; settings: read-out: GI
# HT-29 = test: Cytotoxicity against human HT-29 cells assessed as growth inhibition at 10 uM; format: functional; settings: read-out: GI
# [16] = Cytotoxicity against human HCT15 cells assessed as growth inhibition at 10 uM; format: functional; settings: HCT-15, read-out: GI
# HCT-116 = test: Cytotoxicity against human HCT116 cells assessed as growth inhibition at 10 uM; format: functional; settings: read-out: GI
# HCC 2998 = test: Cytotoxicity against human HCC2998 cells assessed as growth inhibition at 10 uM; format: functional; settings: read-out: GI
# COLO 205 = test: Cytotoxicity against human COLO205 cells assessed as growth inhibition at 10 uM; format: functional; settings: read-out: GI
# NCI-H522 = test: Cytotoxicity against human NCI-H522 cells assessed as growth inhibition at 10 uM; format: functional; settings: read-out: GI
# NCI-H460 = test: Cytotoxicity against human NCI-H460 cells assessed as growth inhibition at 10 uM; format: functional; settings: read-out: GI
# NCI-H322M = test: Cytotoxicity against human NCI-H322M cells assessed as growth inhibition at 10 uM; format: functional; settings: read-out: GI
# NCI-H23 = test: Cytotoxicity against human NCI-H23 cells assessed as growth inhibition at 10 uM; format: functional; settings: read-out: GI
# NCI-H226 = test: Cytotoxicity against human NCI-H226 cells assessed as growth inhibition at 10 uM; format: functional; settings: read-out: GI
# HOP-62 = test: Cytotoxicity against human HOP62 cells assessed as growth inhibition at 10 uM; format: functional; settings: read-out: GI
# A549 = test: Cytotoxicity against human A549 cells assessed as growth inhibition at 10 uM; format: functional; settings: read-out: GI
# [17] = Cytotoxicity against human EKVX cells assessed as growth inhibition at 10 uM; format: functional; settings: read-out: GI
# SR = test: Cytotoxicity against human SR cells assessed as growth inhibition at 10 uM; format: functional; settings: read-out: GI
# MOLT-4 = test: Cytotoxicity against human MOLT4 cells assessed as growth inhibition at 10 uM; format: functional; settings: read-out: GI
# RPMI-8226 = test: Cytotoxicity against human RPMI8226 cells assessed as growth inhibition at 10 uM; format: functional; settings: read-out: GI
# K562 = test: Cytotoxicity against human K562 cells assessed as growth inhibition at 10 uM; format: functional; settings: read-out: GI
# CCRF-CEM = test: Cytotoxicity against human CCRF-CEM cells assessed as growth inhibition at 10 uM; format: functional; settings: read-out: GI
# HL-60(TB) = test: Cytotoxicity against human HL-60(TB) cells assessed as growth inhibition at 10 uM; format: functional; settings: read-out: GI
# Caenorhabditis elegans [18] = test: In vivo inhibition of BK channel in L1 stage Caenorhabditis elegans N2 assessed as increase in reversals at 1 uM; format: organism-based
smiles,measurement,setting,value
C=C1Cc2c(Cl)cc3[nH]c4c5c3c2[C@H]2[C@@H]1C[C@@H]2C(C)(C)O[C@H]5[C@@H]1CC[C@@]2(O)[C@@]35O[C@@H]3[C@@H](O)[C@@H](C(=C)C)O[C@H]5CC[C@]2(C)[C@@]41C [PENITREM F],Activity,Caenorhabditis elegans [1],Non-toxic
same,Activity,Caenorhabditis elegans [2],Non-toxic
same,inhibition,MDA-MB-231 [3],inactive
same,IC50,MDA-MB-231 [4],35 µM
same,IC50,MDA-MB-231 [5],13.8 µM
same,IC50,MCF7,15 µM
CC(C)(O)[C@@H]1CC[C@]2(C)[C@H](CC[C@@]3(C)[C@H]2CC[C@H]2Cc4c([nH]c5ccccc45)[C@@]23C)O1 [PASPALINE],Activity,Caenorhabditis elegans [1],Non-toxic
same,Activity,Caenorhabditis elegans [2],Non-toxic
same,IC50,MDA-MB-231 [4],7.6 µM
same,IC50,MDA-MB-231 [5],12.4 µM
same,IC50,MCF7,12.8 µM
C=C1Cc2ccc3[nH]c4c5c3c2[C@H]2[C@@H]1C[C@@H]2C(C)(C)O[C@H]5[C@@H]1CC[C@@]2(O)[C@@]35O[C@@H]3[C@@H](O)[C@@H](C(=C)C)O[C@H]5CC[C@]2(C)[C@@]41C [PENITREM B],inhibition of growth at 10 µM,MDA-MB-468,60.7%
same,inhibition of growth at 10 µM,T47D,64.5%
same,inhibition of growth at 10 µM,BT-549,63.7%
same,inhibition of growth at 10 µM,[6],42.4%
same,inhibition of growth at 10 µM,MDA-MB-231 [7],77.8%
same,inhibition of growth at 10 µM,DU-145,64.4%
same,inhibition of growth at 10 µM,PC-3,27.8%
same,inhibition of growth at 10 µM,[8],11.5%
same,inhibition of growth at 10 µM,TK-10,84%
same,inhibition of growth at 10 µM,SN12C,38.6%
same,inhibition of growth at 10 µM,RXF 393,70.3%
same,inhibition of growth at 10 µM,ACHN,59.3%
same,inhibition of growth at 10 µM,786-0,70.3%
same,inhibition of growth at 10 µM,SK-OV-3,90.3%
same,inhibition of growth at 10 µM,[9],56.7%
same,inhibition of growth at 10 µM,[10],71.4%
same,inhibition of growth at 10 µM,[11],102%
same,inhibition of growth at 10 µM,[12],66.3%
same,inhibition of growth at 10 µM,[13],48.8%
same,inhibition of growth at 10 µM,IGROV-1,54.9%
same,inhibition of growth at 10 µM,[14],76.8%
same,inhibition of growth at 10 µM,[15],44.7%
same,inhibition of growth at 10 µM,SK-MEL-5,61.1%
same,inhibition of growth at 10 µM,SK-MEL-2,87.8%
same,inhibition of growth at 10 µM,SK-MEL-28,94.1%
same,inhibition of growth at 10 µM,MDA-MB-435,33.9%
same,inhibition of growth at 10 µM,Malme-3M,67.4%
same,inhibition of growth at 10 µM,M14,34.5%
same,inhibition of growth at 10 µM,LOX IMVI,39.5%
same,inhibition of growth at 10 µM,U-251,66.3%
same,inhibition of growth at 10 µM,SNB-75,68.2%
same,inhibition of growth at 10 µM,SNB-19,71.8%
same,inhibition of growth at 10 µM,SF-539,89.8%
same,inhibition of growth at 10 µM,SF-268,49.2%
same,inhibition of growth at 10 µM,SW-620,64.1%
same,inhibition of growth at 10 µM,KM12,40.9%
same,inhibition of growth at 10 µM,HT-29,38.4%
same,inhibition of growth at 10 µM,[16],74.3%
same,inhibition of growth at 10 µM,HCT-116,25.3%
same,inhibition of growth at 10 µM,HCC 2998,107%
same,inhibition of growth at 10 µM,COLO 205,76.5%
same,inhibition of growth at 10 µM,NCI-H522,78.5%
same,inhibition of growth at 10 µM,NCI-H460,50.6%
same,inhibition of growth at 10 µM,NCI-H322M,48.2%
same,inhibition of growth at 10 µM,NCI-H23,73.2%
same,inhibition of growth at 10 µM,NCI-H226,82.3%
same,inhibition of growth at 10 µM,HOP-62,94%
same,inhibition of growth at 10 µM,A549,43.1%
same,inhibition of growth at 10 µM,[17],63%
same,inhibition of growth at 10 µM,SR,45.9%
same,inhibition of growth at 10 µM,MOLT-4,36.4%
same,inhibition of growth at 10 µM,RPMI-8226,20.4%
same,inhibition of growth at 10 µM,K562,19.9%
same,inhibition of growth at 10 µM,CCRF-CEM,21.3%
same,inhibition of growth at 10 µM,HL-60(TB),29%
same,Activity,Caenorhabditis elegans [1],Non-toxic
same,Activity,Caenorhabditis elegans [2],Non-toxic
same,inhibition at 15 µM,"MDA-MB-231 [3]; MDA-MB-231, 24 h",40%
same,IC50,MDA-MB-231 [4],10.3 µM
same,IC50,MDA-MB-231 [5],13.7 µM
same,IC50,MCF7,5.5 µM
C=C(C)[C@H]1O[C@H]2CC[C@@]3(C)[C@@](O)(CC[C@H]4[C@@H]5OC(C)(C)[C@H]6C[C@@H]7C(=C)Cc8c(Cl)cc9[nH]c(c5c9c8[C@@]76O)[C@@]43C)[C@]23O[C@@H]3[C@H]1O [PENITREM A],Activity,Caenorhabditis elegans [1],Non-toxic
same,Activity,Caenorhabditis elegans [2],Non-toxic
same,Activity,Caenorhabditis elegans [18],Toxic
